Measurements taken from patent publication US8716318B2, “Pyridone sulfonamides and pyridone sulfamides as MEK inhibitors” (Ardea Biosciences, priority 2006, dated 2014).

Assays:
[1] = biological target: T1, human GST-MEK1^CA (Ser218Asp, Ser222Asp) (Homo sapiens, UniProt Q02750, S218D/S222D); test: MEK1 kinase assay (generation of IC50 data, 33P filter assay with ERK2 and MBP); format: biochemical; conditions: ATP
T1 construct: GST; made in house; host or cells: Escherichia coli
Source text: Materials and preparation of reagents: Human GST-MEK1 and the constitutively active allele GST-MEK1^CA (harboring the mutations Ser218Asp and Ser222Asp) were subcloned into the yeast expression vector pGEM4Z (Promega, Madison, Wis.) from the wild type human MEK1 cDNA. GST-MEK1^CA was expressed in Escherichia coli and partially purified using Glutathione Sepharose 4B affinity resin (Amersham Pharmacia Biotech, Piscataway, N.J.). The ERK2 allele was subcloned from MAPK2/Erk2 cDNA (wild type) in pUSEamp (Upstate Biotechnology, Inc., Waltham, Mass.) into the vector pET21a (Novagen, Madison, Wis.) resulting in an N-terminal histidine-tagged mouse ERK2 allele. ERK2 was expressed and purified to homogeneity [Zhang, 1993 #33]. Myelin basic protein (MBP) was purchased from Gibco BRL (Rockville, Md.). EasyTides adenosine 5′-triphosphate (ATP) ([γ-^33P]) (NEN Perkin Elmer, Wellesley, Mass.) was the source of radiolabel for all kinase reactions. Activated Raf-1 (truncated) and activated MAPKinase 2/ERK2 were purchased from Upstate, Inc. (Lake Placid, N.Y.). 4-20% Criterion Precast gels were purchased from Bio-Rad (Hercules, Calif.).
Determination of enzymatic activity: Compounds were diluted from dimethylsulfoxide (DMSO) stocks into 1×HMNDE (20 mM HEPES pH 7.2, 1 mM MgCl2, 100 mM NaCl, 1.25 mM DTT, 0.2 mM EDTA). A typical 25-microliter assay contained 0.002 nanomoles MEK1^CA, 0.02 nanomoles ERK2, 0.25 nanomoles MBP, 0.25 nanomoles unlabeled ATP, and 0.1 μCi [γ^33P] ATP. The screening assay essentially comprised four additions. Five μl of diluted compound were dispensed to 96-well assay plates. Ten μl of 2.5× enzyme cocktail (MEK1^CA and ERK2 only) were then added to each well followed by a pre-incubation for 30 minutes at ambient temperature. Ten μl of 2.5× substrate cocktail (labeled and unlabeled ATP plus MBP) were then added, followed by incubation for 60 minutes at ambient temperature. Finally, 100 μl of 10% trichloroacetic acid (TCA) were added and incubated for 30 minutes at room temperature to halt the reaction and precipitate radiolabeled protein products. Reaction products were harvested on glass fiber 96 well filter plates prewetted with water and 1% pyrophosphate. The filter plate was then washed 5 times with water. Water was displaced by absolute ethanol and the plate was allowed to air dry for 30 minutes at room temperature. A back seal was applied manually and 40 μl of scintillation cocktail were dispensed to each well. A top seal was applied and the plate was counted in the TopCount for two seconds per well.

[2] = EC50 (no method described)
A375 cells = test: Growth inhibition assay (GI50), A375 cells, CellTiterGlo; format: cell-based; conditions: Homo sapiens, A-375, 48 hr, ATP levels
Procedure: For growth inhibition experiments, A375 cells were plated in white 384-well microplates at 1000 cells/[…]/well. After 24 hr, […] of a 5× drug stock solution was added. All drugs were initially prepared as 200× stocks in DMSO, such that final DMSO concentration was 0.5%. Cells were incubated for 48 hr at 37° C. and ATP levels were determined using CellTiterGlo (Promega, Madison, Wis.). A control MEK inhibitor was used to determine the ATP level corresponding to full growth inhibition and the concentration of test compound that gave ATP levels midway between full growth inhibition and vehicle only ATP levels was determined to be the GI50 using non-linear regression (GraphPad Prism 4).

THP-1 = test: Growth inhibition assay (GI50), THP-1; format: cell-based; conditions: Homo sapiens

T1 sequence (Q02750 whole entry S218D/S222D): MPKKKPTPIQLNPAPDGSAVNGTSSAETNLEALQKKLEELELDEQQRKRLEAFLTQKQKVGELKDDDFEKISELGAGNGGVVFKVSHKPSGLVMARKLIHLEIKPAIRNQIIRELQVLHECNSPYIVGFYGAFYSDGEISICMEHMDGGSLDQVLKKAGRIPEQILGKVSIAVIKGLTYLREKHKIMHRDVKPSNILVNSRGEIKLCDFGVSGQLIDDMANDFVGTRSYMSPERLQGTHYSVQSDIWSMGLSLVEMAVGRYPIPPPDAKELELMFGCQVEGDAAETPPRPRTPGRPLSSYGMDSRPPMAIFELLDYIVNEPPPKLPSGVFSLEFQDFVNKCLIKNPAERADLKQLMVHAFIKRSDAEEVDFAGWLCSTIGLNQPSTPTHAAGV

SMILES | IC50 [1] | EC50 [2] | GI50 (A375 cells) | GI50 (THP-1)
Cn1cc(NS(=O)(=O)C2(CC(O)CO)CC2)c(Nc2ccc(I)cc2F)c(F)c1=O (stereo not drawn) [Example 11, 1-(2,3-Dihydroxy-propyl)-cyclopropanesulfonic acid [5-fluoro-4-(2-fluoro-4-iodo-phenylamino)-1-methyl-6-oxo-1,6-dihydro-pyridin-3-yl]-amide] | < 100 nM | 100 to 500 nM | – | –
Cn1cc(NS(=O)(=O)C2(CC(O)CO)CC2)c(Nc2ccc(I)cc2F)cc1=O (stereo not drawn) [Example 2, 1-(2,3-dihydroxypropyl)-N-(4-(2-fluoro-4-iodophenylamino)-1-methyl-6-oxo-1,6-dihydropyridin-3-yl)cyclopropane-1-sulfonamide] | 500 to 1000 nM | 500 to 1000 nM | > 1000 nM | > 1000 nM
Cc1c(Nc2ccc(I)cc2F)c(NS(=O)(=O)C2CC2)cn(C)c1=O [Example 5, N-(4-(2-fluoro-4-iodophenylamino)-1,5-dimethyl-6-oxo-1,6-dihydropyridin-3-yl)cyclopropanesulfonamide] | < 100 nM | < 100 nM | – | –
Cn1cc(NS(=O)(=O)C2CC2)c(Nc2ccc(I)cc2F)c(F)c1=O [Example 4, N-(5-fluoro-4-(2-fluoro-4-iodophenylamino)-1-methyl-6-oxo-1,6-dihydropyridin-3-yl)cyclopropanesulfonamide] | < 100 nM | < 100 nM | < 100 nM | > 1000 nM
CN(C)S(=O)(=O)Nc1cn(C)c(=O)cc1Nc1ccc(I)cc1F [Example 6, N-(4-(2-fluoro-4-iodophenylamino)-1-methyl-6-oxo-1,6-dihydropyridin-3-yl)dimethyl-1-sulfamide] | > 1000 nM | 500 to 1000 nM | 500 to 1000 nM | 100 to 500 nM
Cn1cc(NS(=O)(=O)NCC(O)CO)c(Nc2ccc(I)cc2F)cc1=O (stereo not drawn) [Example 13] | > 1000 nM | – | > 1000 nM | > 1000 nM
Cn1cc(NS(=O)(=O)C2CC2)c(Nc2ccc(Br)cc2F)cc1=O [Example 8, Cyclopropanesulfonic acid [4-(4-bromo-2-fluoro-phenylamino)-1-methyl-6-oxo-1,6-dihydro-pyridin-3-yl]-amide] | > 1000 nM | – | – | –
Cn1cc(NS(=O)(=O)C2CC2)c(Nc2ccc(Br)cc2F)c(F)c1=O [Example 7, Cyclopropanesulfonic acid [4-(4-bromo-2-fluoro-phenylamino)-5-fluoro-1-methyl-6-oxo-1,6-dihydro-pyridin-3-yl]-amide] | 500 to 1000 nM | – | > 1000 nM | > 1000 nM
Cn1cc(NS(=O)(=O)C2CC2)c(Nc2ccc(I)cc2F)cc1=O [Example 1, N-(4-(2-fluoro-4-iodophenylamino)-1-methyl-6-oxo-1,6-dihydropyridin-3-yl)cyclopropanesulfonamide] | 500 to 1000 nM | < 100 nM | < 100 nM | < 100 nM
Cn1cc(NS(=O)(=O)C2CC2)c(Nc2ccc(Br)cc2F)c(Cl)c1=O [Example 3, N-(5-chloro-4-(2-fluoro-4-bromophenylamino)-1-methyl-6-oxo-1,6-dihydropyridin-3-yl)cyclopropanesulfonamide] | 500 to 1000 nM | 100 to 500 nM | > 1000 nM | > 1000 nM
Cn1cc(NS(=O)(=O)C2CC2)c(Nc2ccc(I)cc2F)c(Cl)c1=O [Example 9, Cyclopropanesulfonic acid [5-chloro-4-(2-fluoro-4-iodo-phenylamino)-1-methyl-6-oxo-1,6-dihydro-pyridin-3-yl]-amide] | < 100 nM | < 100 nM | 500 to 1000 nM | > 1000 nM
Cn1cc(NS(=O)(=O)C2(CC(=O)CO)CC2)c(Nc2ccc(I)cc2F)c(F)c1=O [Example 12, 1-(3-Hydroxy-2-oxo-propyl)-cyclopropanesulfonic acid [5-fluoro-4-(2-fluoro-4-iodo-phenylamino)-1-methyl-6-oxo-1,6-dihydro-pyridin-3-yl]-amide] | < 100 nM | < 100 nM | – | –
Cc1c(Nc2ccc(I)cc2F)c(NS(=O)(=O)C2(Cl)CC2)cn(C)c1=O [Example 10, 1-Chloro-Cyclopropanesulfonic acid [4-(2-fluoro-4-iodo-phenylamino)-1,5-dimethyl-6-oxo-1,6-dihydro-pyridin-3-yl]-amide] | 100 to 500 nM | < 100 nM | – | –
